Marks after values point to notes of the source that are not given here.
Columns and labels:
[1] = tested on: human peripheral blood lymphocytes; assay: Alkaline comet assay; assay type: cell-based; settings: 24 h; CIT 30 µM, CBD 1 µM, bleomycin 1.25 µg/mL
Procedure: (§1) The experimental design included the establishment of lymphocyte cultures, and the 24 h treatments with the test compounds, performed according to the last OECD recommendations, given in the Test Guideline No. 487—In Vitro Mammalian Cell Micronucleus Test.
(§2) The selection of specific concentrations of test compounds adhered to the guidelines for in vitro genotoxicity testing using comet assay. […] Solutions used in testing were prepared just prior to treatment by dissolving the test compounds in ethanol (Kemika, Zagreb, Croatia).
(§3) Two independent trials, with six experimental groups each, were conducted. A total of six replicate cultures for every single experimental group were established. This step was carried out as follows: aliquots of heparinized blood (V = 600 μL per culture) were pipetted into a growth medium RPMI-1640 (Gibco, Grand Island, NY, USA) supplemented with 10% fetal calf serum (Gibco, Grand Island, NY, USA) and antibiotics (penicillin and streptomycin; Sigma-Aldrich, Steinheim, Germany). Lymphocytes were stimulated with a mitogen phytohemagglutinin (Remel, Lenexa, KS, USA) in order to induce cell division prior to exposure to the test chemicals. Cultures were maintained in the humidified atmosphere of 5% CO2 at 37 °C (Heraeus Hera Cell 240 incubator; Langenselbold, Germany).
(§4) Negative controls (NCs) were non-treated lymphocytes. Solvent controls (SCs) were lymphocytes treated with ethanol (its final concentration in the culture corresponded to 0.03%). Positive controls (PCs) were lymphocytes treated for 24 h with bleomycin at 1.25 µg/mL (according to [69]). The other three groups were lymphocytes exposed to single CIT, single CBD, and their combination (CIT + CBD, at the same concentrations).
(§5) Treatments with test compounds started 20 h after the initial establishment of the cell cultures and lasted for 24 h. Upon completion of the exposure, aliquots of 100 µL of the treated cultures were pipetted in sterile conditions and used to prepare microgels for the alkaline comet assay. The remaining content of flasks was further processed using Cytokinesis-Block Micronucleus Cytome (CBMN Cyt) Assay.

[2] = tested on: human peripheral blood lymphocytes; assay: Cytokinesis-Block Micronucleus Cytome (CBMN Cyt) Assay; settings: 24 h, citrinin 30 µM, CBD 1 µM, bleomycin 1.25 µg/mL
Procedure: as §1, §2, §3, §4, §5
CBMN Cyt Assay was performed according to standard protocols proposed for micronucleus assay. Upon completion of the exposure, lymphocyte cultures were subjected to centrifugation at 100× g using a benchtop centrifuge (ROTOFIX 32A, Hettich, Tuttlingen, Germany). During this process, cells settled to the bottom of the tube. The growth medium with tested compounds was removed by pipetting, discarded and replaced with a fresh amount of complete growth medium RPMI-1640 that contained Cytochalasin B (cytoB; Sigma-Aldrich, Steinheim, Germany) at a final concentration of 6 µg/mL. This procedure was timed to the 44th hour of lymphocyte cultivation, as that time is a critical point for the addition of cytoB to inhibit cytokinesis and obtain binucleated cells. All treated and control cultures were further maintained in the previously described conditions at 37 °C until the end of the 72nd hour of cultivation, as proposed by protocols. Then, the preparation of microscopic slides started, which included harvesting of cells by centrifugation (100× g, ROTOFIX 32A centrifuge, Hettich, Tuttlingen, Germany), followed by hypotonic treatment (0.075 mol/L KCl; Kemika, Zagreb, Croatia), and a new round of centrifugation. The resulting sediments of cells were fixed in several repeating stages with methanol–acetic acid (3:1 v/v; both obtained from Kemika, Zagreb, Croatia) followed by centrifugation. The final lymphocyte suspension was dropped onto clean microscope slides.

[3] = tested on: human peripheral blood lymphocytes; assay: Lymphocyte proliferation / cytotoxicity (CBPI, RI); assay type: cell-based; settings: 24 h, citrinin 7.50 µg/mL, CBD 3.15 µg/mL, bleomycin 1.25 µg/mL
Source text: On the same slides, parameters of cell proliferation, cytostasis and cytotoxicity were studied, according to recommendations by OECD 2023 [67]. For that purpose, the numbers of mono-, bi-, tri-, and quadrinuclear cells (i.e., M1, M2, M3, M4) were scored at 400× magnification using a light microscope (Leitz, Oberkochen, Germany). The total number of M1 to M4 cells counted per experimental group was 3000 (i.e., 6 × 500 cells).
Based on the scored ratios of M1 to M4 cells, the Cytokinesis-Block Proliferation Index (CBPI) was calculated, using the formula: CBPI = [(No. of mononucleated cells) + (2 × No. of binucleated cells) + (3 × No. of multinucleated cells)]/(Total number of cells).
To establish the relative number of cell cycles per cell during the period of exposure to cytoB in treated compared to control cultures, the Replication Index (RI) was also calculated according to the formula:RI = {[(<No. binucleated cells> + <2 × No. multinucleated cells>)/(Total number of cells in treated culture)]/[(<No. binucleated cells> + <2 × No. multinucleated cells>) […] (Total number of cells in control culture)]} × 100
Finally, from the obtained values of RI, the cytotoxicity estimate was deduced, as % Cytotoxicity = […].

## bleomycin [Positive Control]
[1]
  tail intensity, mean value ± SE: 14.81 ± 0.59%
[2]; in 6000 BN cells
  Distribution of BNMN Cells with 1 MN: 99 ^a,b,c,d,e
  Distribution of BNMN Cells with 2 MNi: 20 ^a,b,c,d,e
  Distribution of BNMN Cells with 3 MNi: 3
  Distribution of BNNB Cells with 1 NB: 85 ^a,b,c,d,e
  Distribution of BNNB Cells with 2 NBs: 12 ^a,b,c,d,e
  Micronuclei (MNi) and BNMN Cells: Total (BNNB)6000: 122 ^a,b,c,d,e
  Micronuclei (MNi) and BNMN Cells: Total (MNi)6000: 148 ^a,b,c,d,e
  Nuclear Buds (NBs) and BNNB Cells: Total (BNNB)6000: 97 ^a,b,c,d,e
  Nuclear Buds (NBs) and BNNB Cells: Total (NBs)6000: 109 ^a,b,c,d,e
  Nucleoplasmic Bridges (NPBs) and BNNPB Cells: Total (BNNPB)6000: 9 ^a,b,c,d,e
  Nucleoplasmic Bridges (NPBs) and BNNPB Cells: Total (NPBs)6000: 9 ^a,b,c,d,e
[2]; in 6000 cells
  Cell Death: Total (Apoptosis)6000: 94 ^a,b,c,d,e
  Cell Death: Total (Necrosis)6000: 71 ^a,b,c,d,e
[2]; per 1000 BN cells
  Micronuclei (MNi) and BNMN Cells: Mean (BNMN)1000 ± SD: 20.3 ± 2.9 ^a,b,c,d,e
  Micronuclei (MNi) and BNMN Cells: Mean (MNi)1000 ± SD: 24.7 ± 2.5 ^a,b,c,d,e
  Nuclear Buds (NBs) and BNNB Cells: Mean (BNNB)1000 ± SD: 16.2 ± 5.0 ^a,b,c,d,e
  Nuclear Buds (NBs) and BNNB Cells: Mean (NBs)1000 ± SD: 18.2 ± 6.5 ^a,b,c,d,e
  Nucleoplasmic Bridges (NPBs) and BNNPB Cells: Mean (BNNPB)1000 ± SD: 1.5 ± 0.8 ^a,b,c,d,e
  Nucleoplasmic Bridges (NPBs) and BNNPB Cells: Mean (NPBs)1000 ± SD: 1.5 ± 0.8 ^a,b,c,d,e
[2]; per 1000 cells
  Cell Death: Mean (Apoptosis)1000 ± SD: 15.7 ± 5.6 ^a,b,c,d,e
  Cell Death: Mean (Necrosis)1000 ± SD: 11.8 ± 3.6 ^a,b,c,d,e
[3]; 3000 cells scored
  Cytokinesis-Block Proliferation Index: 1.60^↓nc, sc, cit, cbd,&
[3]; deduced from RI
  Cytotoxicity (%): 41.25%
[3]; relative to negative control
  Replication Index (%): 58.75%

Reference: publication PMC11679033, “Assessing the Potential Synergistic/Antagonistic Effects of Citrinin and Cannabidiol on SH-SY5Y, HepG2, HEK293 Cell Lines, and Human Lymphocytes” (Toxins, 2024)
